Test system: CD8^+T cells
Experiment: Multifunctionality of CD8^+T cells of primary lung cancer patients (stage I) after metformin treatment of PBMC (flow cytometer)
Format: cell-based, human
Conditions: for Decrease, IFNγ 1-cytokine-producing cell / Decrease, IFNγ/IL-2 2-cytokine-producing cell / Decrease, IFNγ/TNFα 2-cytokine-producing cell / Decrease, IFNγ/TNFα/IL2 3-cytokine-producing cell / Increase, IFNγ 1-cytokine-producing cell / Increase, IFNγ/IL-2 2-cytokine-producing cell / Increase, IFNγ/TNFα 2-cytokine-producing cell / Increase, IFNγ/TNFα/IL2 3-cytokine-producing cell / No Change, IFNγ 1-cytokine-producing cell / No Change, IFNγ/IL-2 2-cytokine-producing cell / No Change, IFNγ/TNFα 2-cytokine-producing cell / No Change, IFNγ/TNFα/IL2 3-cytokine-producing cell: Cancer Patients (stage I)
Protocol: 1. Peripheral blood was obtained from a test subject, and PBMC was separated by a density-gradient centrifugation using a lymphocyte-separating reagent Ficoll-Paque® (GE Healthcare). 3 mL of Ficoll-Paque® was dispensed in a 15-mL tube. 8 mL of the peripheral blood was gently placed on the reagent. At this time, care should be taken not to mix Ficoll-Paque® with the peripheral blood. Centrifugation was performed at 400 g for 30 minutes, thereby separating PBMC. 2. The separated PBMC was preserved in a −150° C. freezer or liquid nitrogen using Bambang Car cell preservation liquid by adjusting the cell number to 2.0×10^6 cell/tube. 3. In the test, the thawed PBMC was cultured for 1 to 10 hours in the presence or absence of […]. The culture was performed using a 24-well plate, and the cell number was adjusted to about 5.0×10^5 cell/well. 4. The cells were collected after 1 to 10 hours, washed with medium, and cultured in the presence of a cell activation reagent (potent nanomolar activator of protein kinase C (PMA, 50 ng/mL), ionomycin (1 μM)) for 6 hours, thereby non-specifically stimulating T cells. At this time, BD Gorgi Stop™ was added to keep the produced cytokines inside the cells. 5. The cells were isolated and washed twice with a cell-staining buffer. First, staining of CD8, PD-1, Tim-3, which are molecules expressed on the T cell surface, was performed. In the staining, a staining buffer was added in an amount of 50 μL per sample. The culture was performed at 4° C. for 30 minutes. 6. The cells were collected and washed twice with a cell-staining buffer. 500 μL of BD Cytofix/Cytoperm was added and cultured at 4° C. for 30 minutes. 7. The cells were collected and washed twice with BD Perm/Wash™. Staining of cytokines IL-2, TNFα, and IFNγ was performed. In the staining, BD Perm/Wash™ was added in an amount of 50 μL per sample. The culture was performed at 4° C. for 30 minutes. 8. The cells were collected and washed twice with BD Perm/Wash™, and 200 μL of BD Perm/Wash™ was added. 9. Analysis was performed using a FACSCanto™ II flow cytometer (Becton, Dickinson and Company).
Among the PBMC treated with PMA/ionomycin in the method shown in (2) above, first, a gate was applied to CD8^+T cells using a FACSCanto™ II flow cytometer (Becton, Dickinson and Company), and then […] were removed by FSC-A and FSC-H. Using parameters FSC-A and SSC-A, a gate was applied to a lymphocyte group, thereby analyzing expression of PD-1 and Tim-3. Further, intracellular cytokines IFNγ, TNFα, and IL-2 were stained, and multifunctionality of CD8^+T cells contained in the PBMC was analyzed (FIG. 1).
Each PBMC obtained from 31 primary lung cancer patients (stage I) was cultured for an hour in the same manner as in (4) in the presence or absence of metformin. After metformin was removed, each resulting PBMC was analyzed. In a representative example, the CD8^+T cells untreated with metformin were determined to be 0.92%, and the CD8^+T cells treated with metformin were determined to be 1.44% (FIG. 3). Accordingly, it was judged that, in comparison with healthy subjects, multifunctionality of CD8^+T cells was increased by a metformin treatment in many cancer patients.
Among the cancer patients treated as above, the ratios of CD8^+T cells producing three kinds of cytokines (IFNγ/TNFα/IL-2), CD8^+T cells producing two kinds of cytokines (IFNγ/TNFα or IFNγ/IL-2), CD8^+T cells producing one kind of cytokine (IFNγ) with respect to the entire CD8^+T cells were calculated according to the same analysis as in (4), and shown in Table 2. The calculation results were compared between the metformin-untreated group (control) and the metformin-treated group (metformin).
This Example analyzed test results of recovery of multifunctionality of CD8^+T cells by metformin in 10 healthy subjects and 31 cancer patients (stage I) based on the results obtained by the method in Example 1. […]

[1] = total CD8^+T cells, cancer patients (stage I)

CN(C)C(=N)N=C(N)N [metformin]
Decrease, IFNγ 1-cytokine-producing cell (PD-1+, Tim-3+, patients/total): 10/31 | Decrease, IFNγ/IL-2 2-cytokine-producing cell (PD-1+, Tim-3+, patients/total): 8/31 | Decrease, IFNγ/TNFα 2-cytokine-producing cell (PD-1+, Tim-3+, patients/total): 9/31 | Decrease, IFNγ/TNFα/IL2 3-cytokine-producing cell (PD-1+, Tim-3+, patients/total): 7/31 | Increase, IFNγ 1-cytokine-producing cell (PD-1+, Tim-3+, patients/total): 19/31 | Increase, IFNγ/IL-2 2-cytokine-producing cell (PD-1+, Tim-3+, patients/total): 9/31 | Increase, IFNγ/TNFα 2-cytokine-producing cell (PD-1+, Tim-3+, patients/total): 11/31 | Increase, IFNγ/TNFα/IL2 3-cytokine-producing cell (PD-1+, Tim-3+, patients/total): 11/31 | No Change, IFNγ 1-cytokine-producing cell (PD-1+, Tim-3+, patients/total): 2/31 | No Change, IFNγ/IL-2 2-cytokine-producing cell (PD-1+, Tim-3+, patients/total): 14/31 | No Change, IFNγ/TNFα 2-cytokine-producing cell (PD-1+, Tim-3+, patients/total): 11/31 | No Change, IFNγ/TNFα/IL2 3-cytokine-producing cell (PD-1+, Tim-3+, patients/total): 13/31 | Decrease, IFNγ 1-cytokine-producing cell (PD-1+, Tim-3−, patients/total): 10/31 | Decrease, IFNγ/IL-2 2-cytokine-producing cell (PD-1+, Tim-3−, patients/total): 12/31 | Decrease, IFNγ/TNFα 2-cytokine-producing cell (PD-1+, Tim-3−, patients/total): 10/31 | Decrease, IFNγ/TNFα/IL2 3-cytokine-producing cell (PD-1+, Tim-3−, patients/total): 10/31 | Increase, IFNγ 1-cytokine-producing cell (PD-1+, Tim-3−, patients/total): 11/31 | Increase, IFNγ/IL-2 2-cytokine-producing cell (PD-1+, Tim-3−, patients/total): 12/31 | Increase, IFNγ/TNFα 2-cytokine-producing cell (PD-1+, Tim-3−, patients/total): 10/31 | Increase, IFNγ/TNFα/IL2 3-cytokine-producing cell (PD-1+, Tim-3−, patients/total): 14/31 | No Change, IFNγ 1-cytokine-producing cell (PD-1+, Tim-3−, patients/total): 10/31 | No Change, IFNγ/IL-2 2-cytokine-producing cell (PD-1+, Tim-3−, patients/total): 7/31 | No Change, IFNγ/TNFα 2-cytokine-producing cell (PD-1+, Tim-3−, patients/total): 11/31 | No Change, IFNγ/TNFα/IL2 3-cytokine-producing cell (PD-1+, Tim-3−, patients/total): 7/31 | Decrease, IFNγ 1-cytokine-producing cell (PD-1−, Tim-3+, patients/total): 14/31 | Decrease, IFNγ/IL-2 2-cytokine-producing cell (PD-1−, Tim-3+, patients/total): 9/31 | Decrease, IFNγ/TNFα 2-cytokine-producing cell (PD-1−, Tim-3+, patients/total): 8/31 | Decrease, IFNγ/TNFα/IL2 3-cytokine-producing cell (PD-1−, Tim-3+, patients/total): 6/31 | Increase, IFNγ 1-cytokine-producing cell (PD-1−, Tim-3+, patients/total): 10/31 | Increase, IFNγ/IL-2 2-cytokine-producing cell (PD-1−, Tim-3+, patients/total): 13/31 | Increase, IFNγ/TNFα 2-cytokine-producing cell (PD-1−, Tim-3+, patients/total): 13/31 | Increase, IFNγ/TNFα/IL2 3-cytokine-producing cell (PD-1−, Tim-3+, patients/total): 12/31 | No Change, IFNγ 1-cytokine-producing cell (PD-1−, Tim-3+, patients/total): 7/31 | No Change, IFNγ/IL-2 2-cytokine-producing cell (PD-1−, Tim-3+, patients/total): 9/31 | No Change, IFNγ/TNFα 2-cytokine-producing cell (PD-1−, Tim-3+, patients/total): 10/31 | No Change, IFNγ/TNFα/IL2 3-cytokine-producing cell (PD-1−, Tim-3+, patients/total): 13/31 | Decrease, IFNγ 1-cytokine-producing cell (PD-1−, Tim-3−, patients/total): 16/31 | Decrease, IFNγ/IL-2 2-cytokine-producing cell (PD-1−, Tim-3−, patients/total): 17/31 | Decrease, IFNγ/TNFα 2-cytokine-producing cell (PD-1−, Tim-3−, patients/total): 14/31 | Decrease, IFNγ/TNFα/IL2 3-cytokine-producing cell (PD-1−, Tim-3−, patients/total): 14/31 | Increase, IFNγ 1-cytokine-producing cell (PD-1−, Tim-3−, patients/total): 9/31 | Increase, IFNγ/IL-2 2-cytokine-producing cell (PD-1−, Tim-3−, patients/total): 12/31 | Increase, IFNγ/TNFα 2-cytokine-producing cell (PD-1−, Tim-3−, patients/total): 13/31 | Increase, IFNγ/TNFα/IL2 3-cytokine-producing cell (PD-1−, Tim-3−, patients/total): 13/31 | No Change, IFNγ 1-cytokine-producing cell (PD-1−, Tim-3−, patients/total): 6/31 | No Change, IFNγ/IL-2 2-cytokine-producing cell (PD-1−, Tim-3−, patients/total): 2/31 | No Change, IFNγ/TNFα 2-cytokine-producing cell (PD-1−, Tim-3−, patients/total): 4/31 | No Change, IFNγ/TNFα/IL2 3-cytokine-producing cell (PD-1−, Tim-3−, patients/total): 4/31 | Decrease, IFNγ 1-cytokine-producing cell (Total CD8T, patients/total): 13/31 | Decrease, IFNγ/IL-2 2-cytokine-producing cell (Total CD8T, patients/total): 15/31 | Decrease, IFNγ/TNFα 2-cytokine-producing cell (Total CD8T, patients/total): 12/31 | Decrease, IFNγ/TNFα/IL2 3-cytokine-producing cell (Total CD8T, patients/total): 12/31 | Increase, IFNγ 1-cytokine-producing cell (Total CD8T, patients/total): 5/31 | Increase, IFNγ/IL-2 2-cytokine-producing cell (Total CD8T, patients/total): 13/31 | Increase, IFNγ/TNFα 2-cytokine-producing cell (Total CD8T, patients/total): 15/31 | Increase, IFNγ/TNFα/IL2 3-cytokine-producing cell (Total CD8T, patients/total): 14/31 | No Change, IFNγ 1-cytokine-producing cell (Total CD8T, patients/total): 13/31 | No Change, IFNγ/IL-2 2-cytokine-producing cell (Total CD8T, patients/total): 3/31 | No Change, IFNγ/TNFα 2-cytokine-producing cell (Total CD8T, patients/total): 4/31 | No Change, IFNγ/TNFα/IL2 3-cytokine-producing cell (Total CD8T, patients/total): 5/31 | Increase + No Change, IFNγ/TNFα/IL2, share of patients (Total CD8T, Patients (stage I)): 61.3% | Increase + No Change, IFNγ/TNFα/IL2 (Total CD8T, Patients (stage I), patients/total): 19/31 | multifunctionality of CD8^+T cells by a metformin treatment (many cancer patients, in comparison with healthy subjects): increased | CD8^+T cells capable of simultaneously producing IFNγ, TNFα and IL-2, treated with metformin (primary lung cancer patients (stage I), representative example, FIG. 3, untreated with metformin 0.92%): 1.44% | decrease in multifunctionality (three kinds of cytokines), share of patients [1]: 38.7% | increase in multifunctionality (three kinds of cytokines), share of patients [1]: 45.2%
